Data on 14 molecules can be found in ChEMBL document CHEMBL1147468, “Synthesis and anti-inflammatory effects of novel pimarane diterpenoid analogs” (Bioorg Med Chem Lett, 2004).

One may read the IC50 as the concentration that gives 50% inhibition. One may read the inhibition as the percentage by which the read-out fell short of the control.

For test [1], the target named is T1, Prostaglandin G/H synthase 2 (Ovis aries, UniProt P79208).
T1 sequence (P79208 whole entry): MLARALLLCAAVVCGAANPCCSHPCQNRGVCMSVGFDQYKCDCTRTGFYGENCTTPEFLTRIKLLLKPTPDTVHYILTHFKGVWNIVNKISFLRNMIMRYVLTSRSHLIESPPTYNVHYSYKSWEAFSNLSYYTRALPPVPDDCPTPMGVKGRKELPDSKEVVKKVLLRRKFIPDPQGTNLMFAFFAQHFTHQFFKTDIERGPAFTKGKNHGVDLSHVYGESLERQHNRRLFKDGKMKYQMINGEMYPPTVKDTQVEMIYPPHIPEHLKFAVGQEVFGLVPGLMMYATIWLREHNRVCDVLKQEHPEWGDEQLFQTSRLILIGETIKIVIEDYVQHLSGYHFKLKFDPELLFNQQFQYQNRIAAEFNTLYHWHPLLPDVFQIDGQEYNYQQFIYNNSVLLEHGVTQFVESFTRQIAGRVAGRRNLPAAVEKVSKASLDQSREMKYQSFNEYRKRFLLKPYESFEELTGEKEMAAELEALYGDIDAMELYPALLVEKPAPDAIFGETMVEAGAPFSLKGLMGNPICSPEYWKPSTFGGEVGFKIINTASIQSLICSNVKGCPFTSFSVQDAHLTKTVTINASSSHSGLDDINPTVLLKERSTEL
Nature of the test: In vitro inhibition of Prostaglandin G/H synthase 2 from sheep placental cotyledons; No activity.

Test [2] relates to RAW264.7. Nature of the test: In vitro inhibition of NO production at 40 uM concentration in RAW 264.7 cells. The class given is functional. Particulars: Mus musculus.
Test [3] deals with T1, Prostaglandin G/H synthase 2. Briefly: In vitro inhibition of Prostaglandin G/H synthase 2 from sheep placental cotyledons.
The subject of test [4] is RAW264.7. Nature of the test: In vitro inhibition of NO production at 40 uM concentration in RAW 264.7 cells; No activity. The class given is functional, cell-based. To be noted: Mus musculus.

The source made the active and inactive calls. The calls are words filed in the database; no cut-off is given here.

In the case of `C=C[C@@]1(C)CC=C2C(CCC3[C@](C)(C(=O)NC)CCC[C@@]23C)C1` (stereo not given in full), the IC50 result in test [1] was “Not Active”. In the test on RAW264.7 [2], this molecule returned an inhibition at 40 µM of 85.3%.
As to `C=C[C@@]1(C)CC=C2C(CCC3[C@@]2(C)CCC[C@@]3(C)/C=C/C(=O)O)C1` (stereo not given in full), in the test with RAW264.7 [2], the inhibition at 40 µM came to 45.1%.
Still for that read-out and setting: the figure for `C=C[C@@]1(C)CC=C2C(CCC3[C@](C)(C(=O)NN)CCC[C@@]23C)C1` (stereo not given in full) is 3.4%.
For `C=C[C@@]1(C)CC=C2C(CCC3[C@](C)(C(=O)n4ccnc4)CCC[C@@]23C)C1` (stereo not given in full), the IC50 result in test [1] is “Not Active”. In the test on RAW264.7 [2], this molecule came in with an inhibition at 40 µM of 99%.
In test [3], `C=C[C@@]1(C)CC=C2C(CCC3[C@](C)(CC(=O)NS(=O)(=O)c4ccc(I)cc4)CCC[C@@]23C)C1` (stereo not given in full) came in with an IC50 of 72.2 µM. In addition, the inhibition at 40 µM in the test with RAW264.7 [2] is 94.6%.
On to `C=C[C@@]1(C)CC=C2C(CCC3[C@](C)(CCC(=O)O)CCC[C@@]23C)C1` (stereo not given in full), for which the inhibition at 40 µM in the test on RAW264.7 [2] came to 23%.
`C=C[C@@]1(C)CC=C2C(CCC3[C@](C)(CCCC(=O)O)CCC[C@@]23C)C1` (stereo not given in full) returned an inhibition at 40 µM in the test on RAW264.7 [2] of 65.2%.
Regarding `C=C[C@@]1(C)CC=C2C(CCC3[C@](C)(CC(=O)O)CCC[C@@]23C)C1` (stereo not given in full), the inhibition result in the test on RAW264.7 [4] was “inactive”.
Take `C=C[C@@]1(C)CC=C2C(CCC3[C@](C)(CCC(=O)NS(=O)(=O)c4ccc(I)cc4)CCC[C@@]23C)C1` (stereo not given in full): the IC50 in test [3] was determined as 60.7 µM. In the test with RAW264.7 [2], the inhibition at 40 µM turned out to be 99.5%.
On to `C=C[C@@]1(C)CC=C2C(CCC3[C@](C)(C/C=C\C(=O)O)CCC[C@@]23C)C1` (stereo not given in full), for which the inhibition at 40 µM with RAW264.7 [2] worked out at 77.9%.
With `C=C[C@@]1(C)CC=C2C(CCC3[C@@]2(C)CCC[C@@]3(C)/C=C/C=C/C(=O)O)C1` (stereo not given in full), in the test with RAW264.7 [2], the inhibition at 40 µM turned out to be 96.5%.
With `C=C[C@@]1(C)CC=C2C(CCC3[C@](C)(CO)CCC[C@@]23C)C1` (stereo not given in full) [ACANTHOL], in test [1], the IC50 result is on record as “Not Active”. Moreover, the inhibition at 40 µM in the test on RAW264.7 [2] stood at 84.8%.
For the molecule `C=C[C@@]1(C)CC=C2C(CCC3[C@](C)(CCC/C=C/C(=O)O)CCC[C@@]23C)C1` (stereo not given in full), in test [3], half-maximal inhibition (IC50) was put at 37.8 µM. In the test with RAW264.7 [2], 40 µM produced 98.2% inhibition.
As to `C=C[C@@]1(C)CC=C2C(CCC3[C@](C)(CCCCC(=O)O)CCC[C@@]23C)C1` (stereo not given in full), 40 µM produced 99% inhibition in the test with RAW264.7 [2].
